Data as given in patent publication US6300331A, “Naphthalimidobenzamide derivatives” (Taiho Pharmaceutical Co., Ltd., priority 1998, dated 2001).
Counter-ions that a name gives are not always drawn. Like-named read-outs stand apart in the source and are kept apart here.

How the values were obtained:
[1] = test system: region abundant in adenine and thymine; test: interaction with DNA region abundant in adenine and thymine; format: binding
Description: (§1) The naphthalimidobenzamide derivatives (1) or salts thereof according to the present invention are compounds synthesized to have a high affinity with DNA and base sequence selectivity. As a result of various investigations, it has been confirmed that the compounds of the present invention each has a high affinity with DNA based on the results of various tests including a test using ethidium bromide displacement assay or the like. It has also been confirmed that they have stronger affinities with respective base sequence regions.

[2] = test system: KB cells; test: Cytotoxicity against KB cells (crystal violet dying method); format: cell-based; settings: Homo sapiens, read-out: Cytotoxicity [IC50 (μM)]
Protocol: Test 1 Cytotoxicity against KB cells
The residue was re-suspended in an MEM medium containing 10% fetal bovine serum. Then, an equivalent amount of a 0.2% trypan blue solution was added to a portion of the cell suspension, followed by mixing. The number of living cells which had not been dyed with the trypan blue was counted by a hemocytometer and the suspension was diluted and adjusted with the above-described culture medium to give a cell concentration of 1×10^4 cells/ml. Each well of a 96-well plate was inoculated with a 100-μl portion of the resulting suspension, in other words, was inoculated to give a concentration of 1×10^3 cells/well.
To the cells cultured in a CO2 incubator for 24 hours after the inoculation was added 100 μl/well of a medicament solution, followed by culturing for 72 hours. To a control was added 100 μl of an MEM medium.
The cytotoxicity of the medicament was determined from a change in the number of the cells by using the crystal violet dying method.
After washing the plate with water, 100 μl/well of a 0.05% crystal violet solution dissolved in 20% methanol was added to dye the cells therewith for about 15 minutes. The plate was washed to remove the unbound crystal violet, followed by the addition of 100 μl/well of 0.05M NaH2 PO4 /ethanol (1:1 v/v), whereby the crystal violet bound to the cellular protein was extracted.

[3] = test system: region abundant in guanine and cytosine; test: interaction with DNA region abundant in guanine and cytosine; format: binding
Description: as §1

[4] = test system: human gastric cancer strains AZ521; test: antitumor test in nude mouse subcutaneously transplanted with human gastric cancer strains AZ521; format: in vivo
[5] = test system: human skin cancer strains LOX; test: antitumor test in nude mouse subcutaneously transplanted with human skin cancer strains LOX; format: in vivo
[6] = test system: human breast cancer strains MX1; test: antitumor test in nude mouse subcutaneously transplanted with human breast cancer strains MX1; format: in vivo
[7] = test system: human pancreatic cancer strains PAN6; test: antitumor test in nude mouse subcutaneously transplanted with human pancreatic cancer strains PAN6; format: in vivo
[8] = KB cells, 72 hours, 50% proliferation inhibition

| SMILES | IC50 [2, 8] [µM] | also measured |
| --- | --- | --- |
| Cn1cc(NC(=O)c2cc(NC=O)cn2C)cc1C(=O)NCCNCCNC(=O)c1cc(C(=O)NCCNCCNC(=O)c2cc(NC(=O)c3cc(NC=O)cn3C)cn2C)cc(N2C(=O)c3cccc4cc([N+](=O)[O-])cc(c34)C2=O)c1 [Example 30, 1,3-bis[N-[2-[[2-[4-(4-formamido-1-methylpyrrole-2-carbonylamino)-1-methylpyrrole-2-carbonylamino]ethyl]amino]ethyl]carbamoyl]-5-(3-nitro-1,8-naphthalimido)benzene dihydrochloride] | – | interaction with a region abundant in adenine and thymine [1]: strong interaction |
| O=C(NCCCNCCCN1C(=O)c2cccc3cc([N+](=O)[O-])cc(c23)C1=O)c1cc(C(=O)NCCCNCCCN2C(=O)c3cccc4cc([N+](=O)[O-])cc(c34)C2=O)cc(N2C(=O)c3cccc4cc([N+](=O)[O-])cc(c34)C2=O)c1 [Example 11, 1,3-bis[N-[3-[[3-(3-nitro-1,8-naphthalimido)propyl]amino]propyl]carbamoyl]-5-(3-nitro-1,8-naphthalimido)benzene dihydrochloride] | 0.14 | – |
| O=C(NCCNCCN1C(=O)c2cccc3c(Cl)ccc(c23)C1=O)c1cc(C(=O)NCCNCCN2C(=O)c3cccc4c(Cl)ccc(c34)C2=O)cc(N2C(=O)c3cccc4cccc(c34)C2=O)c1 [Example 9, 1,3-bis[N-[2-[[2-(4-chloro-1,8-naphthalimido)ethyl]amino]ethyl]carbamoyl]-5-(1,8-naphthalimido)benzene dihydrochloride] | 0.023 | – |
| O=C(NCCNCCN1C(=O)c2cccc3cc([N+](=O)[O-])cc(c23)C1=O)c1cccc(N2C(=O)c3cccc4cc([N+](=O)[O-])cc(c34)C2=O)c1 [Example 39, 1-(3-nitro-1,8-naphthalimido)-3-[N-[2-[[2-(3-nitro-1,8-naphthalimido)ethyl]amino]ethyl]carbamoyl]benzene hydrochloride] | 0.0053 | – |
| O=C(NCCNCCN1C(=O)c2cccc3cc([N+](=O)[O-])cc(c23)C1=O)c1cc(C(=O)NCCNCCN2C(=O)c3cccc4cc([N+](=O)[O-])cc(c34)C2=O)cc(N2C(=O)c3cccc4cc([N+](=O)[O-])cc(c34)C2=O)c1 [Example 4, 1,3-bis[N-[2-[[2-(3-nitro-1,8-naphthalimido)ethyl]amino]ethyl]carbamoyl]-5-(3-nitro-1,8-naphthalimido)benzene dihydrochloride] | 0.048 | interaction with a region abundant in guanine and cytosine [3]: strong interaction |
| CN1CCN(C(=O)c2cc(C(=O)NCCNCCN3C(=O)c4cccc5cc([N+](=O)[O-])cc(c45)C3=O)cc(N3C(=O)c4cccc5cccc(c45)C3=O)c2)CC1 [Example 50, 1-(4-methylpiperazino)carbonyl-3-(1,8-naphthalimido)-5-[N-[2-[[2-(3-nitro-1,8-naphthalimido)ethyl]amino]ethyl]carbamoyl]benzene hydrochloride] | 0.022 | – |
| Cn1c(C(=O)NCCNCCNC(=O)c2cc(C(=O)NCCNCCN3C(=O)c4cccc5cc([N+](=O)[O-])cc(c45)C3=O)cc(N3C(=O)c4cccc5cc([N+](=O)[O-])cc(c45)C3=O)c2)cc2ccccc21 [Example 16, 1-(3-nitro-1,8-naphthalimido)-3-[N-[2-[[2-(3-nitro-1,8-naphthalimido)ethyl]amino]ethyl]carbamoyl]-5-[N-[2-[[2-(1-methylindole-2-carbonylamino)ethyl]amino]ethyl]carbamoyl]benzene dihydrochloride] | 6.6 | – |
| O=C(NCCNCCCN1C(=O)c2cccc3cc([N+](=O)[O-])cc(c23)C1=O)c1cccc(N2C(=O)c3cccc4cc([N+](=O)[O-])cc(c34)C2=O)c1 [Example 40 (A), 1-(3-nitro-1,8-naphthalimido)-3-[N-[2-[[3-(3-nitro-1,8-naphthalimido)propyl]amino]ethyl]carbamoyl]benzene hydrochloride] | 0.003 | – |
| O=C(NCCNCCN1C(=O)c2cc3ccccc3cc2C1=O)c1cc(C(=O)NCCNCCN2C(=O)c3cccc4cc([N+](=O)[O-])cc(c34)C2=O)cc(N2C(=O)c3cccc4cc([N+](=O)[O-])cc(c34)C2=O)c1 [Example 17, 1-[N-[2-[[2-(2,3-naphthalimido)ethyl]amino]ethyl]carbamoyl]-3-(3-nitro-1,8-naphthalimido)-5-[N-[2-[[2-(3-nitro-1,8-naphthalimido)ethyl]amino]ethyl]carbamoyl]benzene dihydrochloride] | 0.28 | – |
| O=C(NCCNCCN1C(=O)c2cccc3cc([N+](=O)[O-])cc(c23)C1=O)c1cc(C(=O)N2CCC(N3CCCCC3)CC2)cc(N2C(=O)c3cccc4cc([N+](=O)[O-])cc(c34)C2=O)c1 [Example 55, 1-(3-nitro-1,8-naphthalimido)-3-[N-[2-[[2-(3-nitro-1,8-naphthalimido)ethyl]amino]ethyl]carbamoyl]-5-(4-piperidinopiperidino)carbonylbenzene hydrochloride] | 0.11 | – |
| O=C(NCCNCCn1c2ccccc2c2ccncc21)c1cc(C(=O)NCCNCCn2c3ccccc3c3ccncc32)cc(N2C(=O)c3cccc4cc([N+](=O)[O-])cc(c34)C2=O)c1 [Example 3, 1,3-bis[N-[2-[[2-(pyrido[3,4-b]indol-9-yl)ethyl]amino]ethyl]carbamoyl]-1-(3-nitro-1,8-naphthalimido)benzene tetratrifluoroacetate] | 2.6 | – |
| O=C(NCCNCCN1C(=O)c2cccc3c(Cl)ccc(c23)C1=O)c1cc(C(=O)NCCNCCN2C(=O)c3cccc4c(Cl)ccc(c34)C2=O)cc(N2C(=O)c3cccc4cc([N+](=O)[O-])cc(c34)C2=O)c1 [Example 8, 1,3-bis[N-[2-[[2-(4-chloro-1,8-naphthalimido)ethyl]amino]ethyl]carbamoyl]-5-(3-nitro-1,8-naphthalimido)benzene dihydrochloride] | 0.05 | – |
| O=C(NCCNCCNC(=O)c1ccnc2ccccc12)c1cc(C(=O)NCCNCCN2C(=O)c3cccc4cc([N+](=O)[O-])cc(c34)C2=O)cc(N2C(=O)c3cccc4cc([N+](=O)[O-])cc(c34)C2=O)c1 [Example 14, 1-(3-nitro-1,8-naphthalimido)-3-[N-[2-[[2-(3-nitro-1,8-naphthalimido)ethyl]amino]ethyl]carbamoyl]-5-[N-[2-[[2-(quinoline-4-carbonylamino)ethyl]amino]ethyl]carbamoyl]benzene trihydrochloride] | 1.3 | – |
| O=C(NCCNCCN1C(=O)c2cccc3cc([N+](=O)[O-])cc(c23)C1=O)c1cc(C(=O)NCCN2CCCCC2)cc(N2C(=O)c3cccc4cc([N+](=O)[O-])cc(c34)C2=O)c1 [Example 46, 1-(3-nitro-1,8-naphthalimido)-3-[N-[2-[[2-(3-nitro-1,8-naphthalimido)ethyl]amino]ethyl]carbamoyl]-5-[N-(2-piperidinoethyl)carbamoyl]benzene hydrochloride] | – | inhibitory effects against tumor proliferation [4]: 79.5%; IC50 ([2]; KB, 72 h): 0.053 µM; inhibitory effects against tumor proliferation [5]: 96.2%; inhibitory effects against tumor proliferation [6]: 71.8%; inhibitory effects against tumor proliferation [7]: 59.8% |
| CN1CCN(C(=O)c2cc(C(=O)NCCNCCN3C(=O)c4cccc5cccc(c45)C3=O)cc(N3C(=O)c4cccc5cccc(c45)C3=O)c2)CC1 [Example 51, 1-(4-methylpiperazino)carbonyl-3-(1,8-naphthalimido)-5-[N-[2-[[2-(1,8-naphthalimido)ethyl]amino]ethyl]carbamoyl]benzene hydrochloride] | 0.025 | – |
